Data on one compound can be found in patent US12090163B2, “Pharmaceutical compositions” (CIPLA LIMITED, priority 2017, dated 2024).

Molecules are shown by their SMILES. Structures can show the parent of a compound that is named as a salt.

Common to all, as to type: cell-based
A short description of data set [1]: Compound cytotoxicity in PBMC assay plates by MTS. To be noted: human, PBMCs, listed as of isolate JV-1083. How it is done:
Fresh human PBMCs, seronegative for HIV and HBV, were isolated from screened donors (Biological Specialty Corporation, Colmar, PA). Cells were pelleted/washed 2-3 times by low speed centrifugation and re-suspension in PBS to remove contaminating platelets. The Leukophoresed blood was then diluted 1:1 with Dulbecco's Phosphate Buffered Saline (DPBS) and layered over 15 mL of Ficoll (GE Healthcare #17-1440-02) in 50 mL centrifuge tube and then centrifuged for 30 minutes at 600×g. Banded PBMCs were gently aspirated from the resulting interface and subsequently washed 2× with PBS by low speed centrifugation. […] Pooling (mixing) of mononuclear cells from more than one donor was used to minimize the variability observed between individual donors, which results from quantitative and qualitative differences in HIV infection and overall response to the PHA and IL-2 of primary lymphocyte populations. […]
Following removal of supernatant samples, compound cytotoxicity was measured by addition of MTS to the plates for determination of cell viability. […]
At assay termination, assay plates were stained with the soluble tetrazolium-based dye MTS (CellTiter 96 Reagent, Promega) to determine cell viability and quantify compound toxicity. […] This allows the rapid quantitative analysis of cell viability and compound cytotoxicity. […]

The subject of another data set is HIV-1 isolate JV-1083. The experiment in a line: In vitro efficacy against HIV-1 in fresh PBMCs (reverse transcriptase activity in supernatant), isolate JV-1083. How it is done:
Fresh human PBMCs, seronegative for HIV and HBV, were isolated from screened donors (Biological Specialty Corporation, Colmar, PA). Cells were pelleted/washed 2-3 times by low speed centrifugation and re-suspension in PBS to remove contaminating platelets. The Leukophoresed blood was then diluted 1:1 with Dulbecco's Phosphate Buffered Saline (DPBS) and layered over 15 mL of Ficoll (GE Healthcare #17-1440-02) in 50 mL centrifuge tube and then centrifuged for 30 minutes at 600×g. Banded PBMCs were gently aspirated from the resulting interface and subsequently washed 2× with PBS by low speed centrifugation. After the final wash, cells were enumerated by tryptan blue exclusion and re-suspended at 1×10^6 cells/mL in RPMI 1640 supplemented with 15% Fetal Bovine Serum (FBS), and 2 mM L-glutamine, 4 μg/mL Phytohemagglutinin (PHA, Sigma). The cells were allowed to incubate for 48-72 hours at 37° C. After incubation, PBMCs were centrifuged and re-suspended in RPMI 1640 with 15% FBS, 2 mM L-glutamine, 100 U/mL penicillin, 100 μg/mL streptomycin, and approximately 100-150 U/mL recombinant human IL-2 (R&D Systems, Inc). IL-2 was included in the culture medium to maintain the cell division initiated by the PHA mitogenic stimulation. PBMCs were maintained in this medium at a concentration of 1-2×10^6 cells/mL with biweekly medium changes until used in the assay protocol. Cells were kept in culture for a maximum of two weeks before being deemed too old for use in assays and discarded. MDMs were depleted from the culture as the result of adherence to the tissue culture flask. […] Pooling (mixing) of mononuclear cells from more than one donor was used to minimize the variability observed between individual donors, which results from quantitative and qualitative differences in HIV infection and overall response to the PHA and IL-2 of primary lymphocyte populations. […]

The test system of a further data set is HCV replicon. The data set is described as follows: HCV replicon antiviral evaluation assay. The protocol:
(§1) The subgenomic HCV replicons of genotype 1a (H77 strain), 1b (Coni strain), and 2a (JFH-1 strain), which are Huh7 human hepatoma cell lines that contains an HCV replicon were used.
The HCV replicon antiviral evaluation assay examines the effects of compounds at six serial dilutions. Human interferon alpha-2b (rIFNα-2b) and/or Sofosbuvir were included in each run as a positive control compound.
(§2) Briefly, the replicon cells were plated at 5,000 cells/well into 96-well plates that were dedicated for the analysis of cell numbers (cytotoxicity) or antiviral activity. On the following day, samples were diluted with assay media and added to the appropriate wells. Cells were processed 72 hours later when the cells were still sub-confluent. For the luciferase endpoint assay, HCV replicon levels were assessed as replicon-derived Luc activity. The concentration of drug that reduces cell viability was assessed by the fluorometric CytoTox-1 cell proliferation assay (Promega), (expressed as cell numbers). For the qRT-PCR/TaqMan assay, total RNA was extracted from the replicon cells using RNeasy 96 kit (Qiagen) according to the manufacturer's protocol. Real-time RTPCR/TaqMan assays was performed to measure copy numbers of the replicon RNA and cellular ribosomal RNA.
(Replicon systems follow genome replication, usually without infectious particles.)

A short description of data set [2]: Cytotoxicity in HepG2 2.2.15 cells by MTS uptake assay. To be noted: human, HepG2 2.2.15 cells (contain the HBV ayw1 genome), same assay plate. (In general: Tetrazolium dyes change colour on reduction, which living cells bring about.)
A short description of data set [3]: Cytotoxicity in HCV replicon cells (CytoTox-1 cell proliferation assay). To be noted: human, concentration decreasing cell viability by 50%. How it is done:
as §1, §2

On to `C[C@H](Cn1cnc2c(N)ncnc21)OCP(=O)(OCOC(=O)C(C)(C)C)Oc1ccccc1` (stereo partly drawn) [((((((R)-1-(6-amino-9H-purin-9-yl)propan-2-yl)oxy)methyl)(phenoxy)phosphoryl)oxy)methyl pivalate fumarate], for which it took 27.7 µM to reach half-maximal cytotoxicity in data set [1] (CC50). For the same compound, the “Selectivity Index” value in the data set with HIV-1 isolate JV-1083 (HIV-1 isolate JV-1083, PBMCs) is reported as 11241; in the data set on HCV replicon (CC50/EC50, HCV replicon cells), 5.98. In addition, the half-maximal effective concentration (EC50) with HIV-1 isolate JV-1083 (Human immunodeficiency virus 1, PBMC, HIV-1 isolate JV-1083, PHA-stimulated fresh human PBMCs, six-seven days) worked out at 0.00246 µM; in the data set on HCV replicon (Hepatitis C virus, concentration inhibiting HCV replicon by 50%, 72 hours, genotype not given), 8.38 µM. The “Conclusion: activity against HIV-1” value with HIV-1 isolate JV-1083 (against the two HIV-1 isolates (JV-1083, 89BZ_167) in PBMCs) is reported as “potently active”. In addition, the “Conclusion: activity against HCV” value in the data set on HCV replicon (HCV replicon assay) is “active”. Moreover, the CC50 at 6 days in data set [2] was over 100 µM. In data set [3], this compound registered a CC50 at 72 h of 50.1 µM.

In general, CC50 refers to the concentration giving 50% cytotoxicity. A word on the EC50: it is the concentration giving half of the maximal effect. A low value points to an effect from little substance.
